Laboratory results taken from ChEMBL document CHEMBL1126835, “QSAR's from similarity matrices. Technique validation and application in the comparison of different similarity evaluation methods” (J Med Chem, 1993).

What was measured:
Gallus gallus = organism: Gallus gallus; experiment: Tested for anti-coccidial activity; type: functional
Monoamine oxidase = biological target: T1, Monoamine oxidase (Homo sapiens, UniProt P21397+P27338); experiment: Binding affinity towards monoaminooxidase Relative to MPTP; type: protein assay
T1 sequence (P21397 whole entry): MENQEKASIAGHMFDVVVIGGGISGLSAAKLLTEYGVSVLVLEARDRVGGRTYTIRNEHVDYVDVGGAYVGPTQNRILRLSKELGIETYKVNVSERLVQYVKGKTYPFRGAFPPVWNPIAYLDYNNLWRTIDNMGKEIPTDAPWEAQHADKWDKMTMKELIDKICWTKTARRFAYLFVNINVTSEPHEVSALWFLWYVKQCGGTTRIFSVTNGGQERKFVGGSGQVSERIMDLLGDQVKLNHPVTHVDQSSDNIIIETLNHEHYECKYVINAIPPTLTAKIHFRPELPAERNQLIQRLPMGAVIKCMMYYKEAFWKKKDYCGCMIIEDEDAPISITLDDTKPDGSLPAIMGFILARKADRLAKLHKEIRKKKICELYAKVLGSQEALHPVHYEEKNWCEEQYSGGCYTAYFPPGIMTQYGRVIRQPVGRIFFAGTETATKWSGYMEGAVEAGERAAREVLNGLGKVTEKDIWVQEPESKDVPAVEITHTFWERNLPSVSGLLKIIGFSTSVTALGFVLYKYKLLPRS
T1 sequence (P27338 whole entry): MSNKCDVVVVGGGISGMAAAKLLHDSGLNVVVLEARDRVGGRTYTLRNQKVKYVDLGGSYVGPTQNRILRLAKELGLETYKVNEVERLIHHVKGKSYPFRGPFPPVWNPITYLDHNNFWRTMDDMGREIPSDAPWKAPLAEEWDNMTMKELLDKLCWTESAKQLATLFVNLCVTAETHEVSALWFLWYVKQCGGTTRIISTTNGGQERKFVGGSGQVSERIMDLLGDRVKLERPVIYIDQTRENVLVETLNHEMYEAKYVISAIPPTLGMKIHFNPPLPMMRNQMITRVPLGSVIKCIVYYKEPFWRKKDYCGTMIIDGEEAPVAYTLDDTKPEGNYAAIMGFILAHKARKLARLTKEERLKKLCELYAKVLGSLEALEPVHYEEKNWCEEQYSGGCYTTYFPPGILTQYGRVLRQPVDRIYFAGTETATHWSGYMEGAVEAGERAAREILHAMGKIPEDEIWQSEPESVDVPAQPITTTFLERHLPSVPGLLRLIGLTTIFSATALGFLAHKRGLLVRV

SMILES	Log 1/MEC (Gallus gallus)	Relative activity (Monoamine oxidase)
O=C(c1ccc(Cl)cc1)c1c(Cl)cc(-n2ncc(=O)[nH]c2=O)cc1Cl	2.9	–
Cc1cc(-n2ncc(=O)[nH]c2=O)cc(C)c1[S+]([O-])c1ccc(Cl)cc1 (centres undefined)	2.58	–
OCCN1CC=C(c2ccccc2)CC1	–	2
O=c1cnn(-c2ccc(Oc3ccc4cc(Br)ccc4c3)c(Cl)c2)c(=O)[nH]1	1.77	–
COc1c(Cl)cc(-n2ncc(=O)[nH]c2=O)cc1Cl	0.06	–
Cc1cc(-n2ncc(=O)[nH]c2=O)cc(Cl)c1S(=O)(=O)c1ccc(Cl)cc1	1.71	–
Cc1cc(-n2ncc(=O)[nH]c2=O)cc(C)c1S(=O)(=O)N1CCOCC1	1.39	–
O=c1cnn(-c2cc(Cl)c(S(=O)(=O)c3ccc(Cl)cc3)c(Cl)c2)c(=O)[nH]1	2.94	–
CN1CCc2c([nH]c3ccccc23)C1	–	2
O=c1cnn(-c2ccc(S(=O)(=O)c3ccc(Cl)cc3)cc2)c(=O)[nH]1	1.96	–
N#Cc1cccc(-n2ncc(=O)[nH]c2=O)c1	0.85	–
CCc1ccccc1C1=CCN(C)CC1	–	3
Cc1cc(-n2ncc(=O)[nH]c2=O)cc(Cl)c1Oc1ccc(C(C)O)cc1 (centres undefined)	2.27	–
O=c1cnn(-c2ccc(S(=O)(=O)c3ccc(Br)cc3)cc2)c(=O)[nH]1	1.71	–
CN1CC=C(c2cccc(Br)c2)CC1	–	3
CN1CC=C(c2ccc(Cl)cc2)CC1	–	2
CSc1ccc(Oc2ccc(-n3ncc(=O)[nH]c3=O)cc2C)cc1	2.23	–
CCCN1CC=C(c2ccccc2)CC1	–	1
Cc1cc(-n2ncc(=O)[nH]c2=O)cc(Cl)c1Oc1ccc(Cl)cc1	1.98	–
CN1CC=C(Cc2ccccc2)CC1	–	3
Cc1cc(-n2ncc(=O)[nH]c2=O)ccc1Oc1ccc(Br)cc1	1.7	–
O=c1cnn(-c2ccc(C(O)c3ccc(Cl)cc3)c(Cl)c2)c(=O)[nH]1 (centres undefined)	2.26	–
O=c1cnn(-c2cc(Cl)c(Sc3ccc(Cl)cc3)c(Cl)c2)c(=O)[nH]1	3.3	–
O=c1cnn(-c2ccccc2)c(=O)[nH]1	-0.42	–

SMILES	Log 1/MEC (Gallus gallus)	Relative activity (Monoamine oxidase)
CCN1CC=CCC1	–	2
O=c1cnn(-c2ccc(Cc3ccc(Cl)cc3)c(Cl)c2)c(=O)[nH]1	1.64	–
COc1cc(OC)cc(-n2ncc(=O)[nH]c2=O)c1	-0.3	–
CN1CC=C(c2ccccc2C(F)(F)F)CC1	–	3
CC1CN(C)CC=C1c1ccccc1 (centres undefined)	–	2
Cc1cc(-n2ncc(=O)[nH]c2=O)cc(Cl)c1Sc1ccc(Cl)cc1	3.28	–
CS(=O)(=O)c1ccc(-n2ncc(=O)[nH]c2=O)cc1	-0.27	–
CSc1ccc(Oc2c(C)cc(-n3ncc(=O)[nH]c3=O)cc2C)cc1C	2.27	–
CN1CC=C(c2ccccc2F)CC1	–	3
O=c1cnn(-c2ccc(F)c(C(F)(F)F)c2)c(=O)[nH]1	1.26	–
CC(=O)c1ccc(Sc2c(C)cc(-n3ncc(=O)[nH]c3=O)cc2Cl)cc1	3.19	–
CN1CC=C(c2ccc(F)cc2)CC1	–	2
O=c1cnn(-c2ccc(Oc3ccc(I)cc3)c(Cl)c2)c(=O)[nH]1	1.77	–
Cc1cc(-n2ncc(=O)[nH]c2=O)ccc1C(O)c1ccccc1 (centres undefined)	1.01	–
Cc1cc(-n2ncc(=O)[nH]c2=O)cc(C)c1Sc1ccc(Cl)cc1 [TIAZURIL]	2.86	–
CC1=C(c2ccccc2)CCN(C)C1	–	2
CN1CC=C(c2cccs2)CC1	–	2
Clc1ccc(C2=CCNCC2)cc1	–	2
O=c1cnn(-c2ccc([N+](=O)[O-])cc2)c(=O)[nH]1	-0.03	–
Cc1ccccc1C1=CCN(C)CC1	–	3
Cc1cc(Cl)cc(-n2ncc(=O)[nH]c2=O)c1	1.2	–
Cc1cc(-n2ncc(=O)[nH]c2=O)ccc1Oc1ccc(S(C)(=O)=O)cc1	1.97	–
O=c1cnn(-c2cc(Cl)cc(Cl)c2)c(=O)[nH]1	1.81	–
Cc1cc(-n2ncc(=O)[nH]c2=O)cc(Cl)c1Oc1ccc(S(=O)(=O)NC2CC2)cc1Cl	1.51	–

SMILES	Log 1/MEC (Gallus gallus)	Relative activity (Monoamine oxidase)
CCN1CC=C(c2ccccc2)CC1	–	2
O=c1cnn(-c2ccc(Sc3ccc(Cl)cc3)c(Cl)c2)c(=O)[nH]1	2.26	–
Cc1cccc(C2=CCN(C)CC2)c1	–	3
CN1CC=C(c2ccccc2)CC1	–	3
CN1CC=C(c2cccc(F)c2)CC1	–	3
C/C(=C\CN(C)C)c1ccccc1	–	3
CN1CCC(c2ccccc2)CC1	–	1
CSc1ccc(Oc2ccc(-n3ncc(=O)[nH]c3=O)cc2Cl)cc1	1.98	–
O=c1cnn(-c2ccc(S(=O)(=O)N3CCOCC3)c(Cl)c2)c(=O)[nH]1	1.09	–
CCC1=CCN(C)CC1	–	2
Cc1cc(-n2ncc(=O)[nH]c2=O)cc(C)c1C(=O)c1ccc(Cl)cc1	1.38	–
Cc1cc(-n2ncc(=O)[nH]c2=O)ccc1Oc1ccc(Cl)cc1Cl	1.69	–
CN1CC=C(C2CCCCC2)CC1	–	3
CCCCN1CC=C(c2ccccc2)CC1	–	1
COc1ccccc1C1=CCN(C)CC1	–	3
O=c1cnn(-c2ccc(Br)c(C(F)(F)F)c2)c(=O)[nH]1	1.35	–
CSc1ccc(Oc2c(C)cc(-n3ncc(=O)[nH]c3=O)cc2C)cc1	2.25	–
COc1cccc(C2=CCN(C)CC2)c1	–	2
O=c1cnn(-c2cc(Cl)c(Cc3ccc(Cl)cc3)c(Cl)c2)c(=O)[nH]1	3.18	–
CC(C)N1CC=C(c2ccccc2)CC1	–	1
CN1CC=C(c2cccn2C)CC1	–	3
CN1CC=C(c2ccccc2Cl)CC1	–	3
N#CCCC(=O)N1CC=C(c2ccccc2)CC1	–	1
CC(=O)c1ccc(Oc2c(C)cc(-n3ncc(=O)[nH]c3=O)cc2Cl)cc1	2.27	–

SMILES	Log 1/MEC (Gallus gallus)	Relative activity (Monoamine oxidase)
O=c1cnn(-c2ccc(Oc3ccccc3)cc2)c(=O)[nH]1	-0.25	–
O=c1cnn(-c2cc(Cl)c(S(=O)(=O)N3CCOCC3)c(Cl)c2)c(=O)[nH]1	1.13	–
O=c1cnn(-c2ccc(Sc3ccc4ccccc4c3)c(Cl)c2)c(=O)[nH]1	0.48	–
Fc1ccc(C2=CCNCC2)cc1	–	2
O=c1cnn(-c2ccc(Oc3ccc(Cl)cc3Cl)c(Cl)c2)c(=O)[nH]1	1.71	–
C=CCN1CC=C(c2ccccc2)CC1	–	1
C1=C(c2ccccc2)CCNC1	–	3
N#CC(c1ccc(Cl)cc1)c1c(Cl)cc(-n2ncc(=O)[nH]c2=O)cc1Cl (centres undefined) [DICLAZURIL]	3.61	–
Cc1cc(C)cc(-n2ncc(=O)[nH]c2=O)c1	0.86	–
CN1CC=C(c2cccc(Cl)c2)CC1	–	3
CCN(C)S(=O)(=O)c1ccc(Oc2c(C)cc(-n3ncc(=O)[nH]c3=O)cc2Cl)c(Cl)c1	2.11	–
C1=C(c2ccccc2)CCN(Cc2ccccc2)C1	–	1
O=c1cnn(-c2ccc(S(=O)(=O)c3ccccc3)cc2)c(=O)[nH]1	1.04	–
O=c1cnn(-c2cccc(C(F)(F)F)c2)c(=O)[nH]1	0.93	–
Cc1cc(-n2ncc(=O)[nH]c2=O)ccc1Oc1ccc(Cl)cc1	0.74	–
CN1CC=C(C(C)(C)C)CC1	–	2
C1=C(c2ccccc2)CCN(CC2CC2)C1	–	1
O=c1cnn(-c2cccc(Cl)c2)c(=O)[nH]1	0.25	–
Cc1cc(-n2ncc(=O)[nH]c2=O)cc(C)c1S(=O)(=O)c1ccc(Cl)cc1	2.59	–
Cc1ccc(C2=CCN(C)CC2)cc1	–	2
Cc1cccc(C)c1C1=CCN(C)CC1	–	3
COc1cc(-n2ncc(=O)[nH]c2=O)cc(OC)c1OC	-0.55	–
